Measurements taken from patent US11685741B2, “Fluorescent probes” (University of Massachusetts, priority 2017, dated 2023).
Values joined by “and” are separate entries in the source; they are usually repeats but may differ in a detail not shown here. Equal entries are not always repeated.

Legend:
[1] = tested on: Bovine aortic endothelial cells (BAEC); test: Confocal imaging of Fe2+ in BAEC cells; format: cell-based; conditions: for fluorescence of cells with sensor only / fluorescence of cells treated with Fe^2+ then Bpy: 10 μM sensor; for fluorescence of cells treated with Fe^2+ then Bpy: 100 μM Fe^2+ overnight, versus Fe^2+ supplement; for fluorescence of cells treated with Fe^2+ then Bpy / fluorescence of Bpy-treated cells: 1 mM Bpy; for fluorescence of Fe^2+-treated cells versus unsupplemented: 100 μM ferrous ammonium sulfate overnight, then 10 μM sensor 30 min; for fluorescence of Bpy-treated cells: versus control cells
Procedure: Bovine aortic endothelial cells BAEC cells, at an approximately density of 1.3 million/ml in complete EBM medium, were incubated with 100 μM ferrous ammonium sulfate (FAS, Fe (NH4)2(SO4)2 from a 10 mM stock solution) for overnight at 37° C. in a humid atmosphere of 5% CO2 and then the cells were washed with fresh EBM medium to remove excess Fe^2+. Then cells were incubated with Rh101D (10 μM, from 500 μM stock solution in DMF) at 37° C. for 30 min and then cells were washed with EBM media and then imaged. In addition, some cells were treated firstly with 100 μM Fe^2+ overnight and then the cells were washed with fresh EBM medium. For chelation experiments, Fe^2+-loaded cells or untreated cells were incubated with 1 mM 2,2′-bipyridyl (Bpy) at 37° C. for 30 min, then sensor was added followed by washing with the media, and then imaging was done. Controls were imaged without incubation with Fe^2+ or 2,2′-bipyridyl. HCT-116, a human colon adenocarcinoma cell line were used for concentration determination of Fe^2+ with the help of the ratiometric sensor Rh101D. HCT-116 were maintained in McCoy's 5A medium supplemented with 10% fetal bouvine serum and 5% antibiotic antimycotic in a 5% CO2 atmosphere at 37° C. Cultures were divided 1:2 every 48 h to an approximate cell density of 1.21 million cells/ml and used for experiments after 24 h. All experiments were performed with cells in the logarithmic growth phase.
A Zeiss LSM 710 laser-scanning confocal microscope system was used for cell imaging experiments in collaboration with a person in the lab. 40× oil-immersion objective lens were used to perform all the experiments. For imaging with the Rh101D sensor, excitation wavelength of the laser was 543 nm and emissions were collected over the range 545-625 nm. For images with MitoTracker Green FM, LysoTracker Deep Red, excitation wavelengths recommended by the manufacturer were 488 nm for MitoTracker, 633 nm for LysoTracker. Emissions were integrated at 492-535 nm (MitoTracker), 650-800 nm (LysoTracker), respectively.
The ability of Rh101D to detect Fe^2+ in live bovine aortic endothelial cells (BAEC) was investigated by confocal microscopy. […] For Fe^2+ repleting conditions, live BAEC cells were incubated with 100 μM of ferrous ammonium sulfate (Fe (NH4)2(SO4)2) at 37° C. for overnight followed by washing with EBM medium to remove excess Fe^2+ and then 10 μM of Rh101D was added to the culture media and was incubated at 37° C. for 30 min. […] For Fe^2+-depleting conditions, 2,2-bipyridyl (Bpy) which is known to be a selective Fe^2+-chelator was used to chelate Fe^2+[33]. […] This fluorescent intensity is almost the same as that of cells without Fe^2+ or Bpy treatment.
To explore this, the distribution of exchangeable Fe^2+ pools in live BAEC cells were further investigated using Rh101D, together with colocalization experiments using other dyes—MitoTracker Green FM (a green fluorescent dye which localizes to mitochondria in live cells regardless of mitochondrial membrane potential) and LysoTracker Deep Red (a fluorescent dye that stains acidic compartments such as endosomes and lysosomes in live cells). BAEC cells (without Fe^2+ treatment) were treated with Rh101D, MitoTracker Green FM, and […].
Bovine aortic endothelial cells (BAEC) were grown at 37° C. in a humid atmosphere of 5% CO2 atmosphere in Endothelial Basal Medium (EBM, Lonza) supplemented with 5% fetal bovine serum (FBS, ATCC). Cultures were divided into 1:2 every 48 h to an approximate cell density of 1.3 million cells/ml and used for experiments after 24 h.
A Zeiss LSM 710 laser-scanning confocal microscope system was used for cell imaging experiments in collaboration with a person in the lab. 40× oil-immersion objective lens were used to perform all the experiments. For imaging with the NIRh-Fret sensor, excitation wavelength of the laser was 633 nm and emissions were collected over the range 650-850 nm. […]

[2] = Metal ion sensing: UV-vis and fluorescence response to Fe3+ and other metal ions
Procedure: The spectroscopic properties of Rh-PK and its interactions with various metal ions were evaluated in acetonitrile (ACN)/Tris-HCl buffer (10 mM, pH 7.3, v/v, 3:1). […] The changes in UV-Vis spectra after the addition of various ions are shown in FIG. 2, which is an absorbance spectrum of 100 μM sensor with various metal ions (100 μM for Ni^+2, Cu^+, Cu^+2, Zn^+2, Pb, Fe^+2, Fe^+3, Cr^+3, Hg^+2, Mn^+2, Ag^+, and Co^+2; 200 μM for K^+, Na^+, Ca^2+ and Mg^2+) in the ACN/Tris buffer (10 mM, pH 7.3, v/v 3:1).
When Fe^3+ was added into the solution of Rh-PK, a significant enhancement of fluorescence (>12-fold with 1.0 equiv of Fe^3+) was observed.
The interferences from the other metal ions with Rh-PK in its response to Fe^3+ was examined. […] Each of the 12 metal ions was pre-incubated with Rh-PK before 1 equiv. of Fe^3+ was added, the fluorescence response was then measured.
The stock solution of sensor and metal ions were prepared at the concentration of 1 mM. M. P. Walkees, Mutat. Res., 2003, 533, 107; M. Waisberg, et al., Toxicology, 2003, 192, 95.
The UV-vis. and fluorescence spectra of RhHPA to various possible interfering metal ions and its selectivity for Fe^3+ were examined. See FIG. 6, which is a plot of absorbance dependent on the concentration of Fe^3+ in the range from 0 to 2 equivalents in ACN/Tris-HCl buffer (10 mM, pH 7.3, v/v 2:1); FIG. 7, which is a Job's plot between Fe^3+ and RhHPA, indicating the 1:1 binding mode for sensor and iron(III). […] Addition of Na^+, K^+, Ca^2+, Mg^2+, Cr^3+, […], Hg^2+, Cu^2+, Pb^2+, Zn^2+, Fe^2+, Co^2+, Ni^2+, and Ag^+ exerted little or no effect on the emission of RhHPA, while remarkable fluorescence enhancement was detected upon the addition of Fe^3+ by excitation of the rhodamine fluorophore at 535 nm.
Experiments of iron(III) with other metal ions were investigated by means of the fluorescence response of RhHPA toward Fe^3+ in the presence of various other metal ions such as Na^+, K^+, Ca^2+, Mg^2+, Cr^3+, Hg^2+, Cu^2+, Pb^2+, Zn^2+, Fe^2+, Co^2+, Ni^2+, Cd^2+, and Ag^+. […] for Fe^3+ had no changes with addition of other metal ions. Cu(II) and Zn(II) increased the fluorescence intensity slightly.

[3] = Rh-PK + Fe^3+, ACN/Tris-HCl buffer pH 7.3 v/v 3:1

Φ [2, 3]	ε of absorption peak at 555 nm [2, 3] [M⁻¹ cm⁻¹]	SMILES	fluorescence of cells with sensor only [1]	fluorescence of cells treated with Fe^2+ then Bpy [1]	fluorescence of Fe^2+-treated cells versus unsupplemented [1]	fluorescence of Bpy-treated cells [1]	increase in fluorescence emission intensity ([2]; one equivalent Fe^3+, ACN/Tris-HCl buffer pH 7.3)
–	–	CCN(CC)c1ccc2c(c1)OC1=C(CCC/C1=C\C=C1\N(C)c3ccccc3C1(C)C)C21c2ccccc2C(=O)N1/N=C\C=C\c1ccc(N(C)C)cc1 (centres unmarked) [NIRh-Fret, (E)-6′-(diethylamino)-2-(((1Z,2E)-3-(4-(dimethylamino)phenyl)allylidene)amino)-4′-(2-((E)-1,3,3-trimethylindolin-2-ylidene)ethylidene)-1′,2′,3′,4′-tetrahydrospiro[isoindoline-1,9′-xanthen]-3-one]	weak fluorescence	marked decrease in fluorescent intensity	significant increase in fluorescent signals	decrease in fluorescence intensity	–
–	–	CN(C)c1ccc(/C=C/C=N/N2C(=O)c3ccccc3C23c2cc4c5c(c2Oc2c3cc3c6c2CCCN6CCC3)CCCN5CCC4)cc1 [Rh101D]	weak fluorescence	marked decrease in fluorescent intensity	significant increase in fluorescent signals	decrease in fluorescence signal	–
0.173	3200	CCN(CC)c1ccc2c(c1)Oc1cc(N(CC)CC)ccc1C21c2ccccc2C(=O)N1CC/N=C(\C)c1cccc(C(C)=O)n1 [Rh-PK, (E)-2-(2-((1-(6-acetylpyridin-2-yl)ethylidene)amino)ethyl)-3′,6′-bis(diethylamino)spiro[isoindoline-1,9′-xanthen]-3-one]	–	–	–	–	~12 fold and > 12 fold
